According to article PMC11299587 (ACS infectious diseases, 2024):
Like-named read-outs stand apart in the source and are kept apart here.

Columns and labels:
[1] = target: T1, TgcPheRS (Toxoplasma gondii cytosolic phenylalanyl-tRNA synthetase, alpha subunit) (Toxoplasma gondii, UniProt A0A125YPN6+S8EZ50); test: thermal shift assay; type: binding
T1 sequence (A0A125YPN6 1-525): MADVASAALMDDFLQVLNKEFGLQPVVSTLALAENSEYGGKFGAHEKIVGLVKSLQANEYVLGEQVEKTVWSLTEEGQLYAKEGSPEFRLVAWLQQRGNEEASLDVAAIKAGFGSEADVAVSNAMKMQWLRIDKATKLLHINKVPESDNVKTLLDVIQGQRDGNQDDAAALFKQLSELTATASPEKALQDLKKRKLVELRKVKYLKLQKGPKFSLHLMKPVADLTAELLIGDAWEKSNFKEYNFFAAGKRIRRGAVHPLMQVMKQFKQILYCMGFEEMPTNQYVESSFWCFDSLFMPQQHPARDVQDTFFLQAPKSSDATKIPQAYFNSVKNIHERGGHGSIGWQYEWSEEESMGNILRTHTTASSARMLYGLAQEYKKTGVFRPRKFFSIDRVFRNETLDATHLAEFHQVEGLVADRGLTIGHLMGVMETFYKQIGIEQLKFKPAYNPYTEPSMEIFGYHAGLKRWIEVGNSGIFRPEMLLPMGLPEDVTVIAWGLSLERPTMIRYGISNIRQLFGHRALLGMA
T1 sequence (S8EZ50 1-675): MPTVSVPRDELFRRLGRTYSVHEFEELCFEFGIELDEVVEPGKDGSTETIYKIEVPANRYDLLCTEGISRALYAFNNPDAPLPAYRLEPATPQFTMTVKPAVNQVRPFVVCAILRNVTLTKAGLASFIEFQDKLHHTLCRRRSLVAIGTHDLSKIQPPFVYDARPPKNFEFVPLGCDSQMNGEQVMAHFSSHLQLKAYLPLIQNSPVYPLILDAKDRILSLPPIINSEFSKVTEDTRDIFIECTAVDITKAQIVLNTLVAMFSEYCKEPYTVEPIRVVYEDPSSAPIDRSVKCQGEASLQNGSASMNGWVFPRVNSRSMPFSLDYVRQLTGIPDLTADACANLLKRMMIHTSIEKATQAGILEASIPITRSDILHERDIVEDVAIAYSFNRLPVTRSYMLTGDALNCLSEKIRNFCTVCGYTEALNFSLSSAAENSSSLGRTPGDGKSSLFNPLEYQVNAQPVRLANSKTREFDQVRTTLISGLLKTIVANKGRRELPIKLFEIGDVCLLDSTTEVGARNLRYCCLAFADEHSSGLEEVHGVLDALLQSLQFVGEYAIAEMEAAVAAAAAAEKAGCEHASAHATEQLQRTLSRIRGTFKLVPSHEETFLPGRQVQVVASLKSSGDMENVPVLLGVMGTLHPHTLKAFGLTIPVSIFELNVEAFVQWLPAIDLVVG

[2] = target: T2, HscPheRS (human cytosolic phenylalanyl-tRNA synthetase, alpha subunit) (Homo sapiens, UniProt Q9Y285); test: malachite green aminoacylation assay with purified enzyme; type: biochemical; settings: read-out: BRD7929
T2 sequence (Q9Y285 2-508): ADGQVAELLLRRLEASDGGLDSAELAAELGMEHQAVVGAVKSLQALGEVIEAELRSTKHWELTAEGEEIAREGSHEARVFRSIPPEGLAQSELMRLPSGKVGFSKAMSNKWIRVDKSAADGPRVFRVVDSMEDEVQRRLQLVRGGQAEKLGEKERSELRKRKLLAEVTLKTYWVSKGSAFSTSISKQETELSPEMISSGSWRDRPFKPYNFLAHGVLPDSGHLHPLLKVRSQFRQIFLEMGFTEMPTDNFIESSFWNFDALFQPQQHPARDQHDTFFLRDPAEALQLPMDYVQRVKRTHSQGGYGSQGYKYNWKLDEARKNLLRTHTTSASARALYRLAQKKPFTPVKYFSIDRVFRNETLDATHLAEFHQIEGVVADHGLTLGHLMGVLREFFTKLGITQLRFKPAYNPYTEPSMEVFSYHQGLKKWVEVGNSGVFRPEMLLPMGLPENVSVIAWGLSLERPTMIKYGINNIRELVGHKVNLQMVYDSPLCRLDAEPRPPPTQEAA
T2 sequence (Q9NSD9 1-589 partner): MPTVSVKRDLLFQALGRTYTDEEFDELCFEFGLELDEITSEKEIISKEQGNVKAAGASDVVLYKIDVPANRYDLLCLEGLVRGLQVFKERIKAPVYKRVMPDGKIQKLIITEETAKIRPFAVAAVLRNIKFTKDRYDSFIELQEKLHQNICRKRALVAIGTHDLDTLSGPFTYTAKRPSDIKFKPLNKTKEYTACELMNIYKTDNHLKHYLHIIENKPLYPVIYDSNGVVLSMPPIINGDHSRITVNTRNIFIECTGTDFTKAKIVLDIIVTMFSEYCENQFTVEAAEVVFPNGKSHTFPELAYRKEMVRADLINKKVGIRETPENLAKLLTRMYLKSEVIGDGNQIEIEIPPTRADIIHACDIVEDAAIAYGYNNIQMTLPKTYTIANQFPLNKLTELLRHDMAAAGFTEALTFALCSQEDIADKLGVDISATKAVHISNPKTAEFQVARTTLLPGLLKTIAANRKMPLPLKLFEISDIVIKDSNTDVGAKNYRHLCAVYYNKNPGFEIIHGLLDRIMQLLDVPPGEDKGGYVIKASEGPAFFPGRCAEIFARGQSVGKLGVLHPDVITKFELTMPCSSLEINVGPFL

[3] = target: T2, HscPheRS (human cytosolic phenylalanyl-tRNA synthetase, alpha subunit); test: as above; type: biochemical
[4] = target: T1, TgcPheRS (Toxoplasma gondii cytosolic phenylalanyl-tRNA synthetase, alpha subunit); test: as above; type: biochemical
[5] = target: T2, HscPheRS (human cytosolic phenylalanyl-tRNA synthetase, alpha subunit); test: as above; type: biochemical; settings: read-out: BRD2108
[6] = target: T1, TgcPheRS (Toxoplasma gondii cytosolic phenylalanyl-tRNA synthetase, alpha subunit); test: as above; type: biochemical; remark: listed apart in the source

COc1ccc(NC(=O)N2CCCCN3[C@H](CN(C)C)[C@H](c4ccc(C#Cc5ccccc5)cc4)[C@@H]3C2)cc1 [BRD7929]
BRD7929 [1]: 11.6 °C
IC50 [2]: 18 µM

COc1ccc(NC(=O)N2CCCN3CC[C@H](c4ccc(C#CC5=CCCCC5)cc4)[C@@H]3C2)cc1 [mCMY416]
IC50 [3]: 3.58 µM
IC50 [4]: 0.24 µM

BRD2108
IC50 [5]: 15.6 µM
IC50 [6]: 0.42 µM
